Data from the supplement of paper PMC10307832.

Tests used:
Test in all cases: relative viability (nuclei count vs DMSO), 5 days (fraction); higher = more cells survive
Indole-3-carbinol = compound: OCc1c[nH]c2ccccc12 [Indole-3-carbinol]
Method in brief: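 Lung cancer cell lines were seeded into 1536-well plates, kept overnight at 37 °C and pinned with five library-drug doses (not always all listed) spaced by √10. After 5 days, nuclei were Hoechst-stained, imaged at 4× and counted with MetaXpress. Viability is treated-well nuclei over vehicle-well nuclei, taken as a median across plates. Plates needed control CV below 25% and at least one doubling.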

[1] = compound: OCc1c[nH]c2ccccc12 [Indole-3-carbinol] + Cc1nc(Nc2ncc(C(=O)Nc3c(C)cccc3Cl)s2)cc(N2CCN(CCO)CC2)n1 [Dasatinib] (partner 0.075 µM)
Method in brief: (§1)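 Relative viability was taken as the ratio of nuclei in treated wells to nuclei in vehicle wells. Lung cancer cell lines in 1536-well plates received compounds by pin tool one day after seeding, either one drug alone or a fixed anchor-drug dose plus five library-drug doses (not always all listed) in √10 steps. Nuclei were counted on 4× images after 5 days of treatment, and values are medians of duplicate plates.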

[2] = compound: OCc1c[nH]c2ccccc12 [Indole-3-carbinol] + O=C(c1cc(Cc2n[nH]c(=O)c3ccccc23)ccc1F)N1CCN(C(=O)C2CC2)CC1 [Olaparib] (partner 8 µM)
Method in brief: as §1

[3] = compound: OCc1c[nH]c2ccccc12 [Indole-3-carbinol] + Cc1nc(NC(=O)N2CCC[C@H]2C(N)=O)sc1-c1ccnc(C(C)(C)C(F)(F)F)c1 [Alpelisib] (partner 2 µM)
Method in brief: as §1

[4] = compound: OCc1c[nH]c2ccccc12 [Indole-3-carbinol] + C[C@@H](Oc1cc(-c2cnn(C3CCNCC3)c2)cnc1N)c1c(Cl)ccc(F)c1Cl [Crizotinib] (partner 1 µM)
Method in brief: as §1

With LK-2 the relative viability (Indole-3-carbinol; 0.253 µM) was 0.929, the relative viability (Indole-3-carbinol; 0.8 µM) was 0.872 and the relative viability (Indole-3-carbinol; 2.53 µM) was 1.02. The relative viability (Indole-3-carbinol; 8 µM) was 1.05, the relative viability ([1]; first compound 0.253 µM) was 0.262 and the relative viability ([1]; first compound 0.8 µM) was 0.297. The relative viability ([1]; first compound 2.53 µM) was 0.299, the relative viability ([1]; first compound 8 µM) was 0.273 and the relative viability ([2]; first compound 0.253 µM) was 0.877. It also gave a relative viability ([2]; first compound 0.8 µM) of 0.675, a relative viability ([2]; first compound 2.53 µM) of 0.808 and a relative viability ([2]; first compound 8 µM) of 0.713. The relative viability ([3]; first compound 0.253 µM) was 1.11, the relative viability ([3]; first compound 0.8 µM) was 1.02 and the relative viability ([3]; first compound 2.53 µM) was 1.25. It also gave a relative viability ([3]; first compound 8 µM) of 1.05, a relative viability ([4]; first compound 0.253 µM) of 0.239 and a relative viability ([4]; first compound 0.8 µM) of 0.218. It also gave a relative viability ([4]; first compound 2.53 µM) of 0.198 and a relative viability ([4]; first compound 8 µM) of 0.229.
In the case of LOU-NH91, the relative viability (Indole-3-carbinol; 0.253 µM) is reported as 0.957, the relative viability (Indole-3-carbinol; 0.8 µM) is reported as 0.933 and the relative viability (Indole-3-carbinol; 2.53 µM) is reported as 0.95. For the same cell line, the relative viability (Indole-3-carbinol; 8 µM) was 1.04, the relative viability ([1]; first compound 0.253 µM) was 0.621 and the relative viability ([1]; first compound 0.8 µM) was 0.573. For the same cell line, the relative viability ([1]; first compound 2.53 µM) was 0.585, the relative viability ([1]; first compound 8 µM) was 0.535 and the relative viability ([2]; first compound 0.253 µM) was 0.916. The relative viability ([2]; first compound 0.8 µM) was 0.872, the relative viability ([2]; first compound 2.53 µM) was 0.974 and the relative viability ([2]; first compound 8 µM) was 0.893. The relative viability ([3]; first compound 0.253 µM) was 0.746, the relative viability ([3]; first compound 0.8 µM) was 0.706 and the relative viability ([3]; first compound 2.53 µM) was 0.703. The relative viability ([3]; first compound 8 µM) was 0.728, the relative viability ([4]; first compound 0.253 µM) was 0.771 and the relative viability ([4]; first compound 0.8 µM) was 0.61. The relative viability ([4]; first compound 2.53 µM) was 0.71 and the relative viability ([4]; first compound 8 µM) was 0.714.
For LU99A, the relative viability (Indole-3-carbinol; 0.253 µM) was 0.946, the relative viability (Indole-3-carbinol; 0.8 µM) was 0.915 and the relative viability (Indole-3-carbinol; 2.53 µM) was 1.01. The relative viability (Indole-3-carbinol; 8 µM) was 0.905, the relative viability ([1]; first compound 0.253 µM) was 0.504 and the relative viability ([1]; first compound 0.8 µM) was 0.587. It also gave a relative viability ([1]; first compound 2.53 µM) of 0.515, a relative viability ([1]; first compound 8 µM) of 0.485 and a relative viability ([2]; first compound 0.253 µM) of 0.256. It also gave a relative viability ([2]; first compound 0.8 µM) of 0.299, a relative viability ([2]; first compound 2.53 µM) of 0.23 and a relative viability ([2]; first compound 8 µM) of 0.268. For the same cell line, the relative viability ([3]; first compound 0.253 µM) was 0.508, the relative viability ([3]; first compound 0.8 µM) was 0.548 and the relative viability ([3]; first compound 2.53 µM) was 0.582. It also gave a relative viability ([3]; first compound 8 µM) of 0.451, a relative viability ([4]; first compound 0.253 µM) of 0.569 and a relative viability ([4]; first compound 0.8 µM) of 0.568. The relative viability ([4]; first compound 2.53 µM) was 0.532 and the relative viability ([4]; first compound 8 µM) was 0.506.
LXF-289 gave a relative viability (Indole-3-carbinol; 0.253 µM) of 1.09, a relative viability (Indole-3-carbinol; 0.8 µM) of 1.1 and a relative viability (Indole-3-carbinol; 2.53 µM) of 1. For the same cell line, the relative viability (Indole-3-carbinol; 8 µM) was 0.946, the relative viability ([1]; first compound 0.253 µM) was 0.256 and the relative viability ([1]; first compound 0.8 µM) was 0.229. The relative viability ([1]; first compound 2.53 µM) was 0.258, the relative viability ([1]; first compound 8 µM) was 0.203 and the relative viability ([2]; first compound 0.253 µM) was 1.24. For the same cell line, the relative viability ([2]; first compound 0.8 µM) was 1.09, the relative viability ([2]; first compound 2.53 µM) was 1.09 and the relative viability ([2]; first compound 8 µM) was 1.08. The relative viability ([3]; first compound 0.253 µM) was 1.03, the relative viability ([3]; first compound 0.8 µM) was 1.1 and the relative viability ([3]; first compound 2.53 µM) was 1.09. For the same cell line, the relative viability ([3]; first compound 8 µM) was 0.99, the relative viability ([4]; first compound 0.253 µM) was 0.863 and the relative viability ([4]; first compound 0.8 µM) was 0.933. It also gave a relative viability ([4]; first compound 2.53 µM) of 0.824 and a relative viability ([4]; first compound 8 µM) of 0.729.
NCI-H23 showed a relative viability (Indole-3-carbinol; 0.253 µM) of 1.04, a relative viability (Indole-3-carbinol; 0.8 µM) of 1.08 and a relative viability (Indole-3-carbinol; 2.53 µM) of 1.05. The relative viability (Indole-3-carbinol; 8 µM) was 0.925, the relative viability ([1]; first compound 0.253 µM) was 0.793 and the relative viability ([1]; first compound 0.8 µM) was 1.01. For the same cell line, the relative viability ([1]; first compound 2.53 µM) was 0.936, the relative viability ([1]; first compound 8 µM) was 0.675 and the relative viability ([2]; first compound 0.253 µM) was 0.316. For the same cell line, the relative viability ([2]; first compound 0.8 µM) was 0.353, the relative viability ([2]; first compound 2.53 µM) was 0.3 and the relative viability ([2]; first compound 8 µM) was 0.276. It also gave a relative viability ([3]; first compound 0.253 µM) of 0.618, a relative viability ([3]; first compound 0.8 µM) of 0.723 and a relative viability ([3]; first compound 2.53 µM) of 0.637. It also gave a relative viability ([3]; first compound 8 µM) of 0.629, a relative viability ([4]; first compound 0.253 µM) of 0.679 and a relative viability ([4]; first compound 0.8 µM) of 0.497. For the same cell line, the relative viability ([4]; first compound 2.53 µM) was 0.55 and the relative viability ([4]; first compound 8 µM) was 0.509.
NCI-H522 was tested, and the relative viability (Indole-3-carbinol; 0.253 µM) was 1.01, the relative viability (Indole-3-carbinol; 0.8 µM) was 0.855 and the relative viability (Indole-3-carbinol; 2.53 µM) was 0.931. The relative viability (Indole-3-carbinol; 8 µM) was 0.976, the relative viability ([1]; first compound 0.253 µM) was 0.806 and the relative viability ([1]; first compound 0.8 µM) was 0.961. The relative viability ([1]; first compound 2.53 µM) was 0.818, the relative viability ([1]; first compound 8 µM) was 0.796 and the relative viability ([2]; first compound 0.253 µM) was 0.657. The relative viability ([2]; first compound 0.8 µM) was 0.564, the relative viability ([2]; first compound 2.53 µM) was 0.663 and the relative viability ([2]; first compound 8 µM) was 0.608.
NCI-H1395 gave a relative viability (Indole-3-carbinol; 0.253 µM) of 0.945, a relative viability (Indole-3-carbinol; 0.8 µM) of 0.92 and a relative viability (Indole-3-carbinol; 2.53 µM) of 0.929. For the same cell line, the relative viability (Indole-3-carbinol; 8 µM) was 0.881, the relative viability ([1]; first compound 0.253 µM) was 0.386 and the relative viability ([1]; first compound 0.8 µM) was 0.392. For the same cell line, the relative viability ([1]; first compound 2.53 µM) was 0.458, the relative viability ([1]; first compound 8 µM) was 0.413 and the relative viability ([2]; first compound 0.253 µM) was 0.42. For the same cell line, the relative viability ([2]; first compound 0.8 µM) was 0.478, the relative viability ([2]; first compound 2.53 µM) was 0.48 and the relative viability ([2]; first compound 8 µM) was 0.413. The relative viability ([3]; first compound 0.253 µM) was 1.31, the relative viability ([3]; first compound 0.8 µM) was 0.984 and the relative viability ([3]; first compound 2.53 µM) was 0.983. The relative viability ([3]; first compound 8 µM) was 1.02.
NCI-H1650 gave a relative viability (Indole-3-carbinol; 0.253 µM) of 1.03, a relative viability (Indole-3-carbinol; 0.8 µM) of 0.794 and a relative viability (Indole-3-carbinol; 2.53 µM) of 0.943. It also gave a relative viability (Indole-3-carbinol; 8 µM) of 0.882, a relative viability ([1]; first compound 0.253 µM) of 0.335 and a relative viability ([1]; first compound 2.53 µM) of 0.324. It also gave a relative viability ([1]; first compound 8 µM) of 0.304, a relative viability ([2]; first compound 0.253 µM) of 0.736 and a relative viability ([2]; first compound 0.8 µM) of 0.889. It also gave a relative viability ([2]; first compound 2.53 µM) of 0.92, a relative viability ([2]; first compound 8 µM) of 0.768 and a relative viability ([4]; first compound 0.253 µM) of 0.907. For the same cell line, the relative viability ([4]; first compound 0.8 µM) was 1.02, the relative viability ([4]; first compound 2.53 µM) was 1.16 and the relative viability ([4]; first compound 8 µM) was 0.968.
With NCI-H1793 the relative viability (Indole-3-carbinol; 0.253 µM) was 0.943, the relative viability (Indole-3-carbinol; 0.8 µM) was 0.841 and the relative viability (Indole-3-carbinol; 2.53 µM) was 1.04. For the same cell line, the relative viability (Indole-3-carbinol; 8 µM) was 0.906, the relative viability ([1]; first compound 0.253 µM) was 0.433 and the relative viability ([1]; first compound 0.8 µM) was 0.422. It also gave a relative viability ([1]; first compound 2.53 µM) of 0.435, a relative viability ([1]; first compound 8 µM) of 0.394 and a relative viability ([2]; first compound 0.253 µM) of 0.947. It also gave a relative viability ([2]; first compound 0.8 µM) of 0.917, a relative viability ([2]; first compound 2.53 µM) of 0.505 and a relative viability ([2]; first compound 8 µM) of 0.764. The relative viability ([3]; first compound 0.253 µM) was 0.779, the relative viability ([3]; first compound 0.8 µM) was 0.768 and the relative viability ([3]; first compound 2.53 µM) was 0.649. The relative viability ([3]; first compound 8 µM) was 0.754.
Cell Line SW 900 has a relative viability (Indole-3-carbinol; 0.253 µM) of 0.922, a relative viability (Indole-3-carbinol; 0.8 µM) of 0.772 and a relative viability (Indole-3-carbinol; 2.53 µM) of 0.903. The relative viability (Indole-3-carbinol; 8 µM) was 0.764, the relative viability ([1]; first compound 0.253 µM) was 0.837 and the relative viability ([1]; first compound 0.8 µM) was 0.79. The relative viability ([1]; first compound 2.53 µM) was 0.438, the relative viability ([1]; first compound 8 µM) was 0.586 and the relative viability ([2]; first compound 0.253 µM) was 0.983. The relative viability ([2]; first compound 0.8 µM) was 1.37, the relative viability ([2]; first compound 2.53 µM) was 0.883 and the relative viability ([2]; first compound 8 µM) was 0.899.
